# Publication PMC12637020, “Synthesis and biological evaluation of novel hydrazone derivatives for the treatment of Alzheimer's disease” (RSC Advances, 2025)
# Columns and labels:
# AChE enzyme = AChE enzyme (Homo sapiens, UniProt P22303); experiment: biochemical; assay type: biochemical; details: for inhibition at 1000 µM: read-out: AChE% inhibition 10^−3 M; for inhibition at 100 µM: read-out: AChE% inhibition 10^−4 M; for IC50: tested at 10 to 0.001 µM
# Excerpt: (§1) The assay was completed in two steps.
# (§2) The potential inhibitory effects of the obtained molecules on the AChE and BChE enzymes was examined using a variation of the Ellman method.[31,33,41–43] Distilled water from the Millipore/Milli-Q purification apparatus was utilized at every stage of the biological activity investigations during the evaluation process. In less than a week, all the solutions required for the biological investigation were meticulously prepared from scratch. A “BioTek-Precision Power (United States)” robotic pipetting system was utilized to distribute the prepared solutions and apply the test compounds and enzyme–substrate solutions to 96-well plates. The “BioTek-Synergy H1 Microplate Reader (United States)” was employed to establish and follow the enzyme protocol for spectrophotometric measurements. Solutions of the compounds were prepared at two different concentrations, 10^−3 M and 10^−4 M, using dimethylsulfoxide (DMSO) as 2% solution, and these were used in biological activity studies.
# BChE enzyme = BChE enzyme (Homo sapiens, UniProt P06276); experiment: biochemical; details: for inhibition at 1000 µM: read-out: BChE% inhibition 10^−3 M; for inhibition at 100 µM: read-out: BChE% inhibition 10^−4 M
# BChE enzyme, sequence (P06276 29-602, species assumed): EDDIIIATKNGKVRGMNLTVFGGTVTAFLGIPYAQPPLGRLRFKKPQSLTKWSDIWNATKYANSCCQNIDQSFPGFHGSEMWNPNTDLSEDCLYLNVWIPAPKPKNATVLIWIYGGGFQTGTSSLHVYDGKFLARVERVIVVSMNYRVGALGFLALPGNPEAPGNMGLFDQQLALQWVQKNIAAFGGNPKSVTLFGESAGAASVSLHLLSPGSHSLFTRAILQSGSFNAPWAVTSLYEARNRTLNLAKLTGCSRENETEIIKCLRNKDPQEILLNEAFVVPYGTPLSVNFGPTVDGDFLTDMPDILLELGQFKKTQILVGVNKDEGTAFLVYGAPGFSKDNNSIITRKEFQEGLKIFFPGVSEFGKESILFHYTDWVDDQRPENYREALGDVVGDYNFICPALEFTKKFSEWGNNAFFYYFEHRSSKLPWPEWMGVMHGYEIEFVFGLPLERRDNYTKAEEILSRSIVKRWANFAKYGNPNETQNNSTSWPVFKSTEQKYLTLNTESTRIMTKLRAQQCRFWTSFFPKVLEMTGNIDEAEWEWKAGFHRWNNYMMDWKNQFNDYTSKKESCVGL
# Excerpt: as §1, §2
# AChE enzyme, sequence (P22303 32-614): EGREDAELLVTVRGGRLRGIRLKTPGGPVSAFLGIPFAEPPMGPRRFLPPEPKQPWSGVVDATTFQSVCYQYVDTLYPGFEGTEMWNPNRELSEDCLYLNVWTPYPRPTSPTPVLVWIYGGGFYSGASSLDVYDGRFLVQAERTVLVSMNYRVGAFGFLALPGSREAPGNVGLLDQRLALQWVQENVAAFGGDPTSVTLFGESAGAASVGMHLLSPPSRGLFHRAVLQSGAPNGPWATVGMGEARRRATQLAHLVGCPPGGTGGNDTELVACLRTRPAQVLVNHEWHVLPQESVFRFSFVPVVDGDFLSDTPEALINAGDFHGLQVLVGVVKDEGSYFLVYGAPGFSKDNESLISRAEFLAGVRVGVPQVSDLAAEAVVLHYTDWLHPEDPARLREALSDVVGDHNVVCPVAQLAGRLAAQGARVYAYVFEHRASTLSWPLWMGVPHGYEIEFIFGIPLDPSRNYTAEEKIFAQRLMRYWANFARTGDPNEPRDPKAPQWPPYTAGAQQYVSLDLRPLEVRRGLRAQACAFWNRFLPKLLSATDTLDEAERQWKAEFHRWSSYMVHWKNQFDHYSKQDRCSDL
structure (smiles),measurement,setting,value
"CC(=NN=c1scc(-c2ccc(Cl)c(Cl)c2)n1C)c1ccc(N2CCCCC2)cc1 [D1h, 4-(3,4-Dichlorophenyl)-3-methyl-2-((1-(4-(piperidin-1-yl)phenyl)ethylidene)hydrazineylidene)-2,3-dihydrothiazole]",inhibition at 1000 µM,AChE enzyme,27.6 ± 1.18%
same,inhibition at 100 µM,AChE enzyme,14.7 ± 0.646%
same,IC50,AChE enzyme,> 1000 µM
same,IC50,BChE enzyme,> 1000 µM
same,inhibition at 1000 µM,BChE enzyme,31.5 ± 1.31%
same,inhibition at 100 µM,BChE enzyme,24.3 ± 0.925%
"CCn1c(-c2ccc(C)cc2C)csc1=NN=C(C)c1ccc(N2CCCCC2)cc1 [D3i, 4-(2,4-Dimethylphenyl)-3-ethyl-2-((1-(4-(piperidin-1-yl)phenyl)ethylidene)hydrazineylidene)-2,3-dihydrothiazole]",inhibition at 1000 µM,AChE enzyme,40.9 ± 1.59%
same,inhibition at 100 µM,AChE enzyme,22.1 ± 0.962%
same,IC50,AChE enzyme,> 1000 µM
same,IC50,BChE enzyme,> 1000 µM
same,inhibition at 1000 µM,BChE enzyme,31.5 ± 1.04%
same,inhibition at 100 µM,BChE enzyme,24.1 ± 0.858%
"CC(=NN=c1scc(-c2ccc(Cl)cc2Cl)n1C)c1ccc(N2CCCCC2)cc1 [D1g, 4-(2,4-Dichlorophenyl)-3-methyl-2-((1-(4-(piperidin-1-yl)phenyl)ethylidene)hydrazineylidene)-2,3-dihydrothiazole]",inhibition at 1000 µM,AChE enzyme,63.5 ± 1.96%
same,inhibition at 100 µM,AChE enzyme,16.9 ± 0.778%
same,IC50,AChE enzyme,> 100 µM
same,IC50,BChE enzyme,> 1000 µM
same,inhibition at 1000 µM,BChE enzyme,36.3 ± 1.56%
same,inhibition at 100 µM,BChE enzyme,31.1 ± 1.07%
"CC(=NN=c1scc(-c2ccc(C)cc2C)n1C)c1ccc(N2CCCCC2)cc1 [D1i, 4-(2,4-Dimethylphenyl)-3-methyl-2-((1-(4-(piperidin-1-yl)phenyl)ethylidene)hydrazineylidene)-2,3-dihydrothiazole]",inhibition at 1000 µM,AChE enzyme,59.3 ± 1.29%
same,inhibition at 100 µM,AChE enzyme,13.7 ± 0.52%
same,IC50,AChE enzyme,> 100 µM
same,IC50,BChE enzyme,> 1000 µM
same,inhibition at 1000 µM,BChE enzyme,40.9 ± 1.86%
same,inhibition at 100 µM,BChE enzyme,29.5 ± 0.846%
"COc1ccc(-c2csc(=NN=C(C)c3ccc(N4CCCCC4)cc3)n2C)cc1 [D1e, 4-(4-Methoxyphenyl)-3-methyl-2-((1-(4-(piperidin-1-yl)phenyl)ethylidene)hydrazineylidene)-2,3-dihydrothiazole]",inhibitory activity,AChE enzyme; at concentrations of 1000 and 100 µM,more than 50%
same,inhibition at 1000 µM,AChE enzyme,92.6 ± 1.8%
same,inhibition at 100 µM,AChE enzyme,84.1 ± 2.15%
same,IC50,AChE enzyme,0.613 ± 0.025 µM
same,IC50,BChE enzyme,> 1000 µM
same,inhibition at 1000 µM,BChE enzyme,27.6 ± 1.08%
same,inhibition at 100 µM,BChE enzyme,17.9 ± 0.71%
"CCn1c(-c2ccc([N+](=O)[O-])cc2)csc1=NN=C(C)c1ccc(N2CCCCC2)cc1 [D3c, 3-Ethyl-4-(4-nitrophenyl)-2-((1-(4-(piperidin-1 yl)phenyl)ethylidene)hydrazineylidene)-2,3-dihydrothiazole]",inhibition at 1000 µM,AChE enzyme,42.8 ± 2.04%
same,inhibition at 100 µM,AChE enzyme,38.2 ± 1.74%
same,IC50,AChE enzyme,> 1000 µM
same,IC50,BChE enzyme,> 1000 µM
same,inhibition at 1000 µM,BChE enzyme,33.9 ± 1.54%
same,inhibition at 100 µM,BChE enzyme,27.3 ± 1.16%
"C=CCn1c(-c2ccc([N+](=O)[O-])cc2)csc1=NN=C(C)c1ccc(N2CCCCC2)cc1 [D2c, 3-Allyl-4-(4-nitrophenyl)-2-((1-(4-(piperidin-1-yl)phenyl)ethylidene)hydrazineylidene)-2,3-dihydrothiazole]",inhibition at 1000 µM,AChE enzyme,67 ± 1.85%
same,inhibition at 100 µM,AChE enzyme,31.4 ± 0.932%
same,IC50,AChE enzyme,> 100 µM
same,IC50,BChE enzyme,> 1000 µM
same,inhibition at 1000 µM,BChE enzyme,35 ± 1.14%
same,inhibition at 100 µM,BChE enzyme,30.7 ± 1.15%
"CCn1c(-c2ccc(Cl)cc2)csc1=NN=C(C)c1ccc(N2CCCCC2)cc1 [D3d, 4-(4-Chlorophenyl)-3-ethyl-2-((1-(4-(piperidin-1-yl)phenyl)ethylidene)hydrazineylidene)-2,3-dihydrothiazole]",inhibition at 1000 µM,AChE enzyme,32.3 ± 1.44%
same,inhibition at 100 µM,AChE enzyme,23.3 ± 1.05%
same,IC50,AChE enzyme,> 1000 µM
same,IC50,BChE enzyme,> 1000 µM
same,inhibition at 1000 µM,BChE enzyme,37.5 ± 1.46%
same,inhibition at 100 µM,BChE enzyme,21.3 ± 1.07%
"CC(=NN=c1scc(-c2ccc(F)cc2)n1C)c1ccc(N2CCCCC2)cc1 [D1b, 4-(4-Fluorophenyl)-3-methyl-2-((1-(4-(piperidin-1 yl)phenyl)ethylidene)hydrazineylidene)-2,3-dihydrothiazole]",inhibition at 1000 µM,AChE enzyme,37.2 ± 1.54%
same,inhibition at 100 µM,AChE enzyme,31.1 ± 1.36%
same,IC50,AChE enzyme,> 1000 µM
same,IC50,BChE enzyme,> 1000 µM
same,inhibition at 1000 µM,BChE enzyme,30.2 ± 0.936%
same,inhibition at 100 µM,BChE enzyme,19.6 ± 0.864%
